Reference: publication PMC8764033, “Single-molecule analysis of specificity and multivalency in binding of short linear substrate motifs to the APC/C” (Nature Communications, 2022)
Where two headings read alike, the source gives them in different places. One block for each molecule: values may come before it. Where a SMILES comes first, the peptide text is derived from it.

How the values were obtained:
Cdc20 = conditions: cited from earlier work
Source text: This specificity raises the exciting possibility of activator-specific targeted protein degradation as a therapeutic application.

hCdh1^WD40 = target: T1, hCdh1^WD40 (Homo sapiens, UniProt Q9UM11); experiment: SMOR assay, human Cdh1 WD40; format: binding; conditions: human Cdh1, D-box binding; read-out: inferred kon
T1 construct: human Cdh1 (aa 165–484; pNH164); made in house; host or cells: Sf9 insect cells (baculovirus)
Protocol: (§1) Activators were cloned into the pFastBac HT A vector, with an N-terminal 2xStrep-Tag II. For some experiments, we constructed vectors for expression of the WD40 domains of yeast Cdh1 (aa 241–550; pNH144), human Cdh1 (aa 165–484; pNH164), or human Cdc20 (aa 162–484; pNH188). For SMOR, a C-terminal GFP tag was added. Bacmid plasmids are listed in Supplementary Table 3. Plasmids were transformed into DH10Bac cells, and purified Bacmid was used to transfect Sf9 cells to generate P1 baculovirus, which was used to generate P2 virus. SF9 cells were infected with the P2 virus for 48 h. Flash-frozen pellets were lysed by sonication or high-pressure homogenization in lysis buffer B (50 mM Tris-HCl pH 8, 150 mM KCl, 0.5 mM EDTA, 1 mM DTT, 10% Glycerol, EDTA-free protease inhibitor tablet, 1 µg ml^−1 pepstatin A). After the lysate was applied to the StrepTrap column, the column was washed with wash buffer B (lysis buffer B lacking protease inhibitors) and eluted in the same buffer containing 2.5 mM desthiobiotin.
(§2) For all SMOR experiments, 24 × 50 mm high precision glass coverslips (Bioscience Tools) and drilled microscope slides were passivated with a combination of PEG and PEG-biotin (coverslips) or PEG only (slides) following a previously published protocol for SiMPull[31]. Reaction chambers (~20 µl) were created using double-sided tape and epoxy. Protein was immobilized on the surface with 0.2 mg ml^−1 NeutrAvidin in buffer C (20 mM HEPES pH 7.5, 150 mM KCl, 10% glycerol, 0.05% Tween-20, 1 mM DTT). Excess NeutrAvidin was washed away and incubated with either biotin-conjugated mouse monoclonal anti-Strep-Tag II antibody (LSBio, Cat. No. LS-C203632-100) or biotin-conjugated rabbit polyclonal anti-GFP antibody (Rockland, Cat. No. 600-406-215) diluted in buffer C + BSA (0.1 mg ml^−1; Molecular Biology Grade Bovine Serum Albumin). Activator WD40 and activated APC/C (typically 50 µl containing about 65 ng APC/C, of which only a small fraction is immobilized on the glass) were immobilized using anti-Strep-Tag II, while APC/C alone was immobilized with anti-GFP. SMOR results were similar when performed in the buffer (wash buffer B) used in polarization anisotropy.
(§3) To capture dynamic protein–protein interactions, dye-labeled substrate diluted in buffer C + BSA was added to the chamber containing immobilized proteins. Interactions were imaged by TIRF microscopy as described below. For optimal signal-to-noise ratio, peptide concentration was no greater than 1 nM. Protein substrates included Hsl1 aa 667–872 and a C-terminal HaloTag followed by a TAP tag, and were produced by translation in rabbit reticulocyte lysates using TnT Quick Coupled Transcription/Translation System (Promega) (see Supplementary Table 5 for plasmids). Protein was purified with magnetic IgG beads and labeled on the bead with JF549 or JF646 dye so that unbound dye could be washed away. Purified dye-labeled protein was then cleaved from the beads using TEV protease. Before adding substrate to the reaction chamber, oxygen scavenging reagents were added (10 nM protocatechuate-3,4-dioxygenase, 2.5 mM protocatechuic acid, and 1 mM Trolox)[41]. A detailed description of the SMOR analysis pipeline is found in Supplementary Note 1.
(§4) Microscopy was performed with a Nikon Eclipse TE2000-E with Perfect Focus with a 100 × 1.49na oil, Apo TIRF DIC N2, 0.13-0.2, WD0.12 objective. Movies were recorded using the Andor iXon DU-897E-CSO. For visualizing GFP-tagged protein, a 491 nm laser was used with an ET525/50 (Chroma) filter for emission. For visualizing JF549-labeled substrate, a 561 nm laser was used with an ET595/50 (Chroma) filter for emission. For visualizing all Cy5-labeled peptides and JF646-labeled substrates, a 640 nm laser was used with an ET685/70 filter (Chroma) for emission. […]

Cdh1^WD40 = target: T2, Cdh1^WD40 (Saccharomyces cerevisiae, UniProt P53197); experiment: SMOR assay (single-molecule off-rate, TIRF), yeast Cdh1^WD40; format: binding
T2 construct: the WD40 domains of yeast Cdh1 (aa 241–550; pNH144); made in house; host or cells: Sf9 insect cells (baculovirus)
T2 sequence (P53197 241-550): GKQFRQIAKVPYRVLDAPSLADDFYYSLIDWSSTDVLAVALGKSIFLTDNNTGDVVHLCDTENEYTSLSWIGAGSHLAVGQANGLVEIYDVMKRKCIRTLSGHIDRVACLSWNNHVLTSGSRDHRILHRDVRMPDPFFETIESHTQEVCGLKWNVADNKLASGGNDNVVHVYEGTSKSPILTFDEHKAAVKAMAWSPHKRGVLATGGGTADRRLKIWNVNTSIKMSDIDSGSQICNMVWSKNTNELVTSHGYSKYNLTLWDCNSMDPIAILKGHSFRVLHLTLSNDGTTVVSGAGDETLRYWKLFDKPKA
Protocol: as §1, §2, §3, §4

Cdh1 WD40 domain (yeast) = target: T3, Cdh1 WD40 domain (yeast) (Saccharomyces cerevisiae, UniProt P53197); experiment: Fluorescence anisotropy, 10 nM Cy5-labeled degron peptide, yeast Cdh1 WD40; format: binding
T3 construct: the WD40 domains of yeast Cdh1 (aa 241–550; pNH144); 2xStrep-Tag II (N); made in house; host or cells: Sf9 insect cells (baculovirus)
T3 sequence (P53197 241-550): T2 sequence (P53197 241-550)
Source text: To determine the affinities of APC/C degrons for their binding sites, we first used conventional equilibrium binding assays of degron peptide binding to the activator. We used the baculovirus system to produce the WD40 domain of Cdh1 from the budding yeast Saccharomyces cerevisiae and measured fluorescence anisotropy to assess the binding of fluorescently-tagged degron peptides at increasing activator concentrations. The WD40 domain of yeast Cdc20 could not be expressed and was not studied.
as §1
Fluorescent degron peptides carried a C-terminal Cy5 label (CPC Scientific) and are listed in Supplementary Table 4. For anisotropy experiments, 10 nM fluorescent peptide was mixed with various concentrations of purified Cdh1 WD40 in wash buffer B at room temperature for 1 min, which we determined was sufficient for the binding reaction to reach equilibrium. Fluorescence was measured on a K2 Multifrequency Fluorometer at 25 °C. All Cy5-labeled peptides were excited with polarized light at 635 nm and emission was detected using a 700/75 nm bandpass filter (ET series, Chroma). […] Data were fitted to one-site equilibrium binding using GraphPad Prism version 8.4 to determine KD. Results were the same when peptide binding was measured in the buffer used in SMOR assays (buffer C, below).

APC/C^apo = target: T4, APC/C^apo (Saccharomyces cerevisiae, UniProt P38042+P53068); experiment: SMOR assay, yeast APC/C^apo (no activator); format: binding
T4 construct: APC/C was purified from yeast cells; made in house; host or cells: S. cerevisiae W303 strain NHY13 (Cdc16-TAP, Apc1-GFP, cdh1 deleted)
Protocol: Yeast strains were derivatives of W303 and are listed in Supplementary Table 2. For APC/C purification, we used a strain carrying Cdc16-TAP and lacking Cdh1 (DOM1126); in most experiments, the strain also carried Apc1-GFP (NHY13). Yeast were grown in YPD media to OD600 = 0.8, collected and flash-frozen. Cells were lysed by bead beating in lysis buffer A (50 mM HEPES pH 7.5, 150 mM KCl, 10% glycerol, 0.2% Triton X-100, 63 µM B-glycerophosphate, 48 µM sodium fluoride, 1 µg ml^−1 pepstatin A, 1 µg ml^−1 leupeptin, 1 µg ml^−1 aprotinin, 1 mM PMSF, 1 mM DTT, 0.5 mM EDTA) and APC/C was purified using magnetic IgG beads. The beads were washed using wash buffer A (20 mM HEPES pH 7.5, 150 mM KCl, 10% Glycerol, 0.05% Triton X-100). After incubation with purified Cdh1 or Cdc20, the APC/C was cleaved off the beads with TEV protease in wash buffer A with 0.05% Tween-20 (for single-molecule studies) or 0.05% Triton X-100 (for ensemble assays such as ubiquitylation) and used immediately.
as §2, §3
Microscopy was performed with a Nikon Eclipse TE2000-E with Perfect Focus with a 100 × 1.49na oil, Apo TIRF DIC N2, 0.13-0.2, WD0.12 objective. Movies were recorded using the Andor iXon DU-897E-CSO. For visualizing GFP-tagged protein, a 491 nm laser was used with an ET525/50 (Chroma) filter for emission. For visualizing JF549-labeled substrate, a 561 nm laser was used with an ET595/50 (Chroma) filter for emission. For visualizing all Cy5-labeled peptides and JF646-labeled substrates, a 640 nm laser was used with an ET685/70 filter (Chroma) for emission. Initially, for each substrate tested, we acquired movies at multiple intervals to deduce the optimal interval to decrease bleaching. µManager version 2.0 was used to control the microscope and record time-lapse movies.

[1] = mean of the listed replicates, source data of Fig. 1a (there μM), read-out: Mean Kd
[2] = replicate 2021-11-10, source data of Fig. 1a (there μM), read-out: Kd
[3] = replicate 2019-07-08, source data of Fig. 1a (there μM), read-out: Kd

T1 sequence (Q9UM11 165-484): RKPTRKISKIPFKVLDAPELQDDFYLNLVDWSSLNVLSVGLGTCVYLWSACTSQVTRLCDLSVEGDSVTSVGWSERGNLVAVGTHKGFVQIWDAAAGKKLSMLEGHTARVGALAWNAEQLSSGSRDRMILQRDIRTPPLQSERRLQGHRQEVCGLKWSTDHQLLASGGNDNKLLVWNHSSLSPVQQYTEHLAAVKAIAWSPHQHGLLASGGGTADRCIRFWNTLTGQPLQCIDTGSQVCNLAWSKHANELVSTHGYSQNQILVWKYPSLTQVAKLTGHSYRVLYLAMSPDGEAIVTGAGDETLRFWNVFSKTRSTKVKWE

Molecule: Cc1ncc([N+](=O)[O-])n1CCOC(=O)NC(Nc1ncccn1)C(Cl)(Cl)Cl (centres unmarked) [Apcin]
- activator specificity (in words) (Cdc20): Cdc20 specificity

Molecule: CC[C@H](C)[C@H](NC(=O)[C@H](CC(=O)O)NC(=O)[C@H](CO)NC(=O)[C@H](CC(C)C)NC(=O)[C@H](C)NC(=O)[C@H](C)NC(=O)[C@H](CCCNC(=N)N)NC(=O)[C@H](CCCCN)NC(=O)[C@@H]1CCCN1C(=O)[C@H](CCCCN)NC(=O)[C@H](CCC(N)=O)NC(=O)[C@@H](N)CCC(=O)O)C(=O)N[C@H](C(=O)N[C@@H](CC(N)=O)C(=O)N[C@@H](CO)C(=O)N[C@@H](Cc1ccccc1)C(=O)N[C@@H](CC(N)=O)C(=O)N[C@@H](CCCCN)C(=O)N[C@@H](CCSC)C(=O)N[C@@H](CC(N)=O)C(=O)N[C@@H](CCCCN)C(=O)O)[C@@H](C)O [Hsl1 D box] (H-EQKPKRAALSDITNSFNKMNK-OH)
- kon (hCdh1^WD40): 100000 M⁻¹ s⁻¹
- kon (Cdh1^WD40; inferred from koff and anisotropy KD, yeast Cdh1, read-out: association rate constant kon): 800000 M⁻¹ s⁻¹
- koff (Cdh1^WD40; reciprocal of mean dwell time, read-out: dissociation rate constant koff): 2.8 s⁻¹
- Kd (Cdh1 WD40 domain (yeast); [1]): 3.48 µM

Molecule: (Cy5)-SLIFDAFNQIR [Cdh1 IR, Cy5-labeled yeast Cdh1 C-terminal IR peptide]
- Dwell Time (APC/C^apo; Supplementary Table 1, replicate 1 (movie listed first)): 0.616 ± 0.019 s
- Dwell Time (APC/C^apo; Supplementary Table 1, replicate 2 (movie listed second)): 0.557 ± 0.011 s
- mean dwell time (APC/C^apo; representative movie, ± SE, buffer C + BSA): 0.616 ± 0.02 s

Molecule: EQKPKRAALSDITNSFNKMN-K(Cy5) [Hsl1 D box and dark KEN mutant, Cy5 Hsl1 D box peptide (10 nM) in presence of unlabeled mutated Hsl1 KEN (100 µM)]
- Kd (Cdh1 WD40 domain (yeast); [1]): 2.86 µM
- Kd (Cdh1 WD40 domain (yeast); [2]): 2.16 µM
- Kd (Cdh1 WD40 domain (yeast); replicate 2021-11-15, source data of Fig. 1a (there μM), read-out: Kd): 3.56 µM
- Kd (Cdh1 WD40 domain (yeast); representative single experiment, Fig. 1c, dark = unlabeled peptide 100 µM, read-out: KD): 3.6 µM

Molecule: EQKPKRAALSDITNSFNKMN-K(Cy5) [Hsl1 D box and dark KEN, Cy5 Hsl1 D box peptide (10 nM) in presence of unlabeled Hsl1 KEN (100 µM)]
- Kd (Cdh1 WD40 domain (yeast); [1]): 1.12 µM
- Kd (Cdh1 WD40 domain (yeast); [2]): 1.04 µM

Further lines, results first:

- Kd (Cdh1 WD40 domain (yeast); [1]): 10.9 µM
- Kd (Cdh1 WD40 domain (yeast); [3]): 6.35 µM
- Kd (Cdh1 WD40 domain (yeast); [2]): 15.5 µM
Molecule: GVSTNKENEGPEYPTKIE-K(Cy5) [Hsl1 KEN and dark D box mutant, Cy5 Hsl1 KEN peptide (10 nM) in presence of unlabeled mutated Hsl1 D box (100 µM)]

- Kd (Cdh1 WD40 domain (yeast); [1]): 3.37 µM
- Kd (Cdh1 WD40 domain (yeast); [3]): 3.41 µM
- Kd (Cdh1 WD40 domain (yeast); [2]): 3.34 µM
Molecule: GVSTNKENEGPEYPTKIE-K(Cy5) [Hsl1 KEN and dark D box, Cy5 Hsl1 KEN peptide (10 nM) in presence of unlabeled Hsl1 D box (100 µM)]
